# Test system: MDA-MB-435 TRAIL potentiation, ATPlite cytotoxicity, 24 h
# Test: PubChem AID 1773
# Details: stronger effect = higher value
compound,measurement,setting,value
CSc1nc(-c2ccc(C)cc2)nc(C(Cl)Cl)n1,cytotoxicity,at 5 µM,50%
same,cytotoxicity with 30 ng/mL TRAIL,at 5 µM,91%
same,cytotoxicity,"compound 2.5 uM plus TRAIL 10, at 2.5 µM",84%
same,cytotoxicity,"compound alone cytotoxicity, at 5 µM",-1%
same,cytotoxicity,"compound plus 100 ng/mL TRAIL, at 5 µM",83%

# From PubChem BioAssay AID1773 (Sanford-Burnham Center for Chemical Genomics, 2009)
